Data published in PMC11861015, “Discovery of novel naphthalene-based diarylamides as pan-Raf kinase inhibitors with promising anti-melanoma activity: rational design, synthesis, in vitro and in silico screening” (Archives of Pharmacal Research, 2025).

What was measured:
Raf kinase enzyme = target: Raf kinase enzyme; design: method as in Buchstaller et al. [2011]; details: ref Buchstaller et al. [2011]; read-out: IC50 against the Raf kinase enzyme; cited from earlier work
B-Raf^WT = target: T1, B-Raf^WT (Homo sapiens, UniProt P15056); assay: In vitro biochemical kinase assay (Kinase HotSpot, Reaction Biology), one-point and 10-dose; details: ATP 10 μM; for inhibition at 10 µM: 10 µM compound, duplicate, read-out: In vitro protein kinase inhibition values (%) B-Raf^WT
T1 construct: purchased Reaction Biology Co. (Kinase HotSpot service)

B-Raf^V600E = target: T2, B-Raf^V600E (Homo sapiens, UniProt P15056, V600E); assay: as above; details: ATP 10 μM; for inhibition at 10 µM: 10 µM compound, duplicate, read-out: In vitro protein kinase inhibition values (%) B-Raf^V600E
T2 construct: purchased Reaction Biology Co. (Kinase HotSpot service)

c-Raf = c-Raf (Homo sapiens, UniProt P04049); assay: as above; details: ATP 10 μM; for inhibition at 10 µM: 10 µM compound, duplicate, read-out: In vitro protein kinase inhibition values (%) c-Raf
ALK = target: T3, ALK (Homo sapiens, UniProt Q9UM73); assay: Kinase selectivity assay, one-point; format: biochemical; details: 10 µM compound, duplicate, ATP 10 μM
T3 construct: purchased Reaction Biology Co. (Kinase HotSpot service)
Protocol: (§1) The in vitro kinase inhibitory assays (both one-point and ten-point assays) were performed at Reaction Biology Co. (Malvern, PA, USA). Kinase HotSpot service was used for screening the tested derivatives. The experiment protocol is previously described in detail (Elkamhawy et al. [2016]).
(§2) No significant inhibition was observed over the other tested kinases.

ERK2/MAPK1 = target: T4, ERK2/MAPK1 (Homo sapiens, UniProt P28482); assay: Kinase selectivity assay, one-point; format: biochemical; details: 10 µM compound, duplicate, ATP 10 μM
T4 construct: purchased Reaction Biology Co. (Kinase HotSpot service)
Protocol: as §1, §2

FGFR1 = target: T5, FGFR1 (Homo sapiens, UniProt P11362); assay: Kinase selectivity assay, one-point; format: biochemical; details: 10 µM compound, duplicate, ATP 10 μM
T5 construct: purchased Reaction Biology Co. (Kinase HotSpot service)
Protocol: as §1, §2

ROS/ROS1 = target: T6, ROS/ROS1 (Homo sapiens, UniProt P08922); assay: Kinase selectivity assay, one-point; format: biochemical; details: 10 µM compound, duplicate, ATP 10 μM
T6 construct: purchased Reaction Biology Co. (Kinase HotSpot service)
Protocol: as §1, §2

TRKB = target: T7, TRKB (Homo sapiens, UniProt Q16620); assay: Kinase selectivity assay, one-point; format: biochemical; details: 10 µM compound, duplicate, ATP 10 μM
T7 construct: purchased Reaction Biology Co. (Kinase HotSpot service)
Protocol: as §1, §2

mTOR/FRAP1 = target: T8, mTOR/FRAP1 (Homo sapiens, UniProt P42345); assay: Kinase selectivity assay, one-point; format: biochemical; details: 10 µM compound, duplicate, ATP 10 μM
T8 construct: purchased Reaction Biology Co. (Kinase HotSpot service)
Protocol: as §1, §2

[1] = system: human melanoma cell line (A375); assay: In vitro cytotoxic activity (MTT assay); format: cell-based; details: for IC50: Homo sapiens, A-375, A375 cells, read-out: IC50 values (μM) against A375
Protocol: Melanoma skin cancer cell line (A375) of American Type Culture Collection (ATCC) was obtained from Korean Cell Line Bank (KCLB). The A375 cells were cultured in Dulbecco’s modified eagle’s medium (DMEM) (GenDepot) supplemented with 1% penicillin–streptomycin and 10% fetal bovine serum (FBS). The cells were maintained at 37 °C in a 5% CO2 with a 95% humid atmosphere. MTT assay, analysis of the cell cycle distribution, apoptosis analysis, and statistical analysis were carried out following known standard protocols adopted by our team earlier (Son et al. [2023]). […]

melanoma cell line A375 [2] = assay: Cell cycle analysis; details: A375 cells treated at IC50
melanoma cell line A375 [3] = assay: Apoptosis analysis (PE-Annexin V / DAPI); details: dosage close to IC50, dot plot
Source text: PE-conjugated Annexin V maintains its strong binding to phosphatidylserine (PS), serving as a sensitive marker for flow cytometric assessment of apoptotic cells. The staining with PE Annexin V precedes the loss of membrane integrity observed in the later phases of cell death, whether induced by apoptotic or necrotic processes. Therefore, PE Annexin V staining is commonly employed alongside a vital dye like propidium iodide (PI) or DAPI. This combination allows researchers to distinguish early apoptotic cells (DAPI negative, PE Annexin V positive) from viable cells with intact membranes, which exclude DAPI. In contrast, the membranes of dead or damaged cells become permeable to DAPI. […] The sequential movement of cells through these stages serves as an indicative pattern of apoptosis.
For a more appropriate investigation of cell death, the compound-treated cells and control A375 cells were stained with PE-Annexin V and DAPI. […] A kind of controlled cell death known as apoptosis may be identified with the use of Annexin V and the DAPI reagent. These two fluorophores are used in the dot plot and image data to identify early and late apoptotic cells.

[4] = system: Raf kinase enzymes (B-Raf^WT, B-Raf^V600E, and c-Raf); assay: One-point kinase assay, summary across Raf kinases; format: biochemical; details: 10 μM compound, ATP 10 μM, span over B-Raf^WT
Protocol: as §1
To evaluate the new structural design of our compounds (9a–i), the biochemical activity was evaluated against Raf kinase enzymes (B-Raf^WT, B-Raf^V600E, and c-Raf) in one-point dose (10 μM) at duplicate mode using ATP concentration 10 μM. The results are presented in Table 2 and expressed in % inhibition.

[5] = 10-dose, threefold serial dilution from 20 μM

T2 sequence (P15056 whole entry V600E): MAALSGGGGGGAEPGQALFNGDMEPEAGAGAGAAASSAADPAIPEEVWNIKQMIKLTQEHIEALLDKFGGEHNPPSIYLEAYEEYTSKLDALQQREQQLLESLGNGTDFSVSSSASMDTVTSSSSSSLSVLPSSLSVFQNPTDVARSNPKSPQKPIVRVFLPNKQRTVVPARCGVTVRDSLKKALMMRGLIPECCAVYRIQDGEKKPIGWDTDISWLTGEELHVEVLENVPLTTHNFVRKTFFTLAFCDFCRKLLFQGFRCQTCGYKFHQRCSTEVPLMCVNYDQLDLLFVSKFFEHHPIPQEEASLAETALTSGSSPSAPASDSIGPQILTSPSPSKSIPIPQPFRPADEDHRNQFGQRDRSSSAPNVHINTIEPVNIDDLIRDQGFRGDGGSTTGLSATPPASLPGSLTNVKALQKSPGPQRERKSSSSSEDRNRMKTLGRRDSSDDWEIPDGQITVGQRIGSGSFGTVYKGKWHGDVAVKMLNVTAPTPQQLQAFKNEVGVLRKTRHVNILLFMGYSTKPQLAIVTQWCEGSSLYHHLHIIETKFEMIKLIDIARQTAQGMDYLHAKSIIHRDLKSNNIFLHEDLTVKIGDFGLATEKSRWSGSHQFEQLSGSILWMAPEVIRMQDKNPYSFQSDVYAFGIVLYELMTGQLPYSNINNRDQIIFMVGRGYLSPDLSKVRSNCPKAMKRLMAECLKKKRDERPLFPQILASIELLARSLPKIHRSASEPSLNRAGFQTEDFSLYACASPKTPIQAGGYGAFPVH
c-Raf, sequence (P04049 whole entry): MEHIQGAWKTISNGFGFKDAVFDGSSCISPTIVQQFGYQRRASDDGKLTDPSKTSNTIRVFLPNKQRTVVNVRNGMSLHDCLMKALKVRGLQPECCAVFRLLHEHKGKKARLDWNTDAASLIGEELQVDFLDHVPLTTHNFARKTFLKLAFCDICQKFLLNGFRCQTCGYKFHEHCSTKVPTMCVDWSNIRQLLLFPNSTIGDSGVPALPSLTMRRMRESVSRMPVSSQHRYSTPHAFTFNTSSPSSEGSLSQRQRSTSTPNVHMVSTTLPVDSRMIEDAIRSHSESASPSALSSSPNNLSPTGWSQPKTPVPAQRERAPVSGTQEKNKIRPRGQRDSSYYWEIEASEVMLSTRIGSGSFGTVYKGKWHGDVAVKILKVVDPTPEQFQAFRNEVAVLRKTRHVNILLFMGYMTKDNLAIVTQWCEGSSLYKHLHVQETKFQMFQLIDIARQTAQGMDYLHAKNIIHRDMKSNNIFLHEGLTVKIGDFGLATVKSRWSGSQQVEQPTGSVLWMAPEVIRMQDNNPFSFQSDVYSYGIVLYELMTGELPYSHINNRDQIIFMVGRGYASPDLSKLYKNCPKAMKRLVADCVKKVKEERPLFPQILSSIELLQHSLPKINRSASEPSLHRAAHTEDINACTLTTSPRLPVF
T1 sequence (P15056 whole entry): as the sequence (P15056 whole entry V600E) above, with E600V counted along it
T7 sequence (Q16620 32-822): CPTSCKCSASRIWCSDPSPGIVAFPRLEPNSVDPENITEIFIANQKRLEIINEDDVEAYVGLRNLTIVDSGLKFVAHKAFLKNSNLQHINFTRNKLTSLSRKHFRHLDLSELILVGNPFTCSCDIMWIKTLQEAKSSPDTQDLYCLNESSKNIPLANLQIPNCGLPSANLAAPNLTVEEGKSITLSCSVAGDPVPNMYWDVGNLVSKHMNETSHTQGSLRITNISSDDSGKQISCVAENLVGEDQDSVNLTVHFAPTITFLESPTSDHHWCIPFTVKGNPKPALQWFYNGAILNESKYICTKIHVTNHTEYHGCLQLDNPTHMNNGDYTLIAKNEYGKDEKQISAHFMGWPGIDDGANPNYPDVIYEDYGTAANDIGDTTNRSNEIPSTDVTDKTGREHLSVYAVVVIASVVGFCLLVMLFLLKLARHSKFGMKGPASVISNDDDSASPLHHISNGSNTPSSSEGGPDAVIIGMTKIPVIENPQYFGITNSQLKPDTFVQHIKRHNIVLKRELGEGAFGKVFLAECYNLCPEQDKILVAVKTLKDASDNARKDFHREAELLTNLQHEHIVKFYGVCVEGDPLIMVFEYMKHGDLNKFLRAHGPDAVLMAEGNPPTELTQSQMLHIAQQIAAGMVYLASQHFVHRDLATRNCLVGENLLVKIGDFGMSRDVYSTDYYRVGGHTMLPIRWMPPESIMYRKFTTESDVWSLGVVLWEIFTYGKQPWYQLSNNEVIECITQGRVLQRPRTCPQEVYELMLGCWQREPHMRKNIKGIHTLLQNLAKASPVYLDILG
T5 sequence (P11362 22-822): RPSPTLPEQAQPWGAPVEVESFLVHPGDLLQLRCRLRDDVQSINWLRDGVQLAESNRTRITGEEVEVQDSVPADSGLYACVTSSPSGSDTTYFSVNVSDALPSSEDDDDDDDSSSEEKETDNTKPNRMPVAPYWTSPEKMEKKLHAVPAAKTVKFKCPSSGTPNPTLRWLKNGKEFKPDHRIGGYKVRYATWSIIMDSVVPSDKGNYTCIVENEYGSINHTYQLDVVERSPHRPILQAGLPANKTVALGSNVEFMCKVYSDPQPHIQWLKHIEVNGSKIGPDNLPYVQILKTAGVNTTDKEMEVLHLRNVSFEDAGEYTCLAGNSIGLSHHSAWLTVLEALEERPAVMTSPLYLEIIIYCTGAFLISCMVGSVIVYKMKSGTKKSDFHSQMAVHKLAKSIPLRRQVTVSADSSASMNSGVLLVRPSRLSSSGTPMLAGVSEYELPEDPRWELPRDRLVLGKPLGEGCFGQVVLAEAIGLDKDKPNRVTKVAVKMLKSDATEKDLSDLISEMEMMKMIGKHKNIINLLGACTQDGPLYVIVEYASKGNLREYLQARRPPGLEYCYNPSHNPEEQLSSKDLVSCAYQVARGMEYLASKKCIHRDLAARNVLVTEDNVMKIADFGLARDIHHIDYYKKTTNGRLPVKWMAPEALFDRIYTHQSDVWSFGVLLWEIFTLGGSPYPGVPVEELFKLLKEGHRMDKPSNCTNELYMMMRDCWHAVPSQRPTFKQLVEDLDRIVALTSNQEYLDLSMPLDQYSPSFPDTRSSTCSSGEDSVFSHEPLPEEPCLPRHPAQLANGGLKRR
T4 sequence (P28482 whole entry): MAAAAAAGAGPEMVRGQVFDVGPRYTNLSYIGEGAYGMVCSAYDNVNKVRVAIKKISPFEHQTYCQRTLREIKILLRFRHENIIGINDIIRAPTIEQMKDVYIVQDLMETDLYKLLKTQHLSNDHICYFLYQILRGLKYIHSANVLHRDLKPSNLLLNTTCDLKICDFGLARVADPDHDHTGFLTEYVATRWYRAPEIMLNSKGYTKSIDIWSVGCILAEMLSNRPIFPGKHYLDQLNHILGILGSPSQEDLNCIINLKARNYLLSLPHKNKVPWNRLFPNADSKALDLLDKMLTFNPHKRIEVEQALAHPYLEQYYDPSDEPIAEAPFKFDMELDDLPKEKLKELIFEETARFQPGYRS
T3 sequence (Q9UM73 19-1620): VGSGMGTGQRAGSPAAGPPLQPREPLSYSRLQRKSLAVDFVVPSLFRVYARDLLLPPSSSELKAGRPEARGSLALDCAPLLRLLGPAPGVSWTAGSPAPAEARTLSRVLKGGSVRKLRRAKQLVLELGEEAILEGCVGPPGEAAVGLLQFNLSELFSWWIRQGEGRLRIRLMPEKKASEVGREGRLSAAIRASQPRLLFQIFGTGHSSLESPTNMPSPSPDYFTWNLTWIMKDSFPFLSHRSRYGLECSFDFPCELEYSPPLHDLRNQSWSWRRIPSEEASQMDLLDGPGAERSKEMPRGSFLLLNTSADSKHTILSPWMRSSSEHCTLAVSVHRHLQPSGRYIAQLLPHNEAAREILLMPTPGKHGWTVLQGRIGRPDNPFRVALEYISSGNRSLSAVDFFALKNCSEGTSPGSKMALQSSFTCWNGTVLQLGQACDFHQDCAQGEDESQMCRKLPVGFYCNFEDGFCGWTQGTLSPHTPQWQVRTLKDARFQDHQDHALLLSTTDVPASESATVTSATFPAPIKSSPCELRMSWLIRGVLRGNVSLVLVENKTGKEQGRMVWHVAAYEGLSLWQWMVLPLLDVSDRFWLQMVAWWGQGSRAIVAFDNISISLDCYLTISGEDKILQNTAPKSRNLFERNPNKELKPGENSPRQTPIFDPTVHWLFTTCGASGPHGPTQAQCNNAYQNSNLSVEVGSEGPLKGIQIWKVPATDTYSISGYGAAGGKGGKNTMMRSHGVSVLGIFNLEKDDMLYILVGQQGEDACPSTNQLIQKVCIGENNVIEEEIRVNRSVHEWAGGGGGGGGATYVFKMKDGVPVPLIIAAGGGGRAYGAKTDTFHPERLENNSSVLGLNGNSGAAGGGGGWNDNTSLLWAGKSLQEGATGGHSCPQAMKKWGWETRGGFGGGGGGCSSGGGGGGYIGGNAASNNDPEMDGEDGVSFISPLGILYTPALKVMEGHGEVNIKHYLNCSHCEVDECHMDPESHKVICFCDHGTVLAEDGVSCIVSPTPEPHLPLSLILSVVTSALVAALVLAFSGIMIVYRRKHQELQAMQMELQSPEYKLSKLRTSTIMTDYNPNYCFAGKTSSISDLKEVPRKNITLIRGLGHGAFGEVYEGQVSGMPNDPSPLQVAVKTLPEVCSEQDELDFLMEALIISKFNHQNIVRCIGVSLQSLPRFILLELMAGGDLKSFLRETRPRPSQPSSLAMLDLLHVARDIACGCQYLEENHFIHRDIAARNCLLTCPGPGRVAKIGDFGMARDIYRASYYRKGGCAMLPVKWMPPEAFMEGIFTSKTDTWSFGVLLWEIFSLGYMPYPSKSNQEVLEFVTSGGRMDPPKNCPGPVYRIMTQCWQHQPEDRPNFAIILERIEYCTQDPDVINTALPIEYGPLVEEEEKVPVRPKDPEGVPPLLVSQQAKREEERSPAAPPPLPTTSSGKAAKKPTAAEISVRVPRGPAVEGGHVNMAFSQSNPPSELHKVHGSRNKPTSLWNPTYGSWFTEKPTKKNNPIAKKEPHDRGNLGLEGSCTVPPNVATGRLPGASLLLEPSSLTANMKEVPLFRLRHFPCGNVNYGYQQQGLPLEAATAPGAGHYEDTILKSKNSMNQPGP

CNC(=O)c1cc2ccc(CCNC(=O)Nc3cc(C(F)(F)F)c(Cl)cc3OC)cc2cn1 [Compound 4]
IC50 (Raf kinase enzyme): 80 nM

CNC(=O)c1cc(Oc2ccc3c(C(=O)Nc4cccc(OC(F)F)c4)cccc3c2)ccn1 [Compound 9a, 4-((5-((3-(Difluoromethoxy)phenyl)carbamoyl)naphthalen-2-yl)oxy)-N-methylpicolinamide]
inhibition at 10 µM (B-Raf^WT): 99.4%
IC50 (B-Raf^WT; [5]): 49.7 nM
inhibition at 10 µM (B-Raf^V600E): 100%
IC50 (B-Raf^V600E; [5]): 18 nM
inhibition at 10 µM (c-Raf): 99.8%
IC50 (c-Raf; [5]): 2.86 nM
inhibition at 10 µM (ALK): 8.23%
inhibition at 10 µM (ERK2/MAPK1): 0%
inhibition at 10 µM (FGFR1): 86.2%
inhibition at 10 µM (ROS/ROS1): 0%
inhibition at 10 µM (TRKB): 17.3%
inhibition at 10 µM (mTOR/FRAP1): 0%
IC50 [1]: 0.12 ± 0.013 µM
G0/G1 phase Percent (melanoma cell line A375 [2]): 18.92%
G2/M phase Percent (melanoma cell line A375 [2]): 6.45%
S phase Percent (melanoma cell line A375 [2]): 71.83%
N quadrant cells (melanoma cell line A375 [3]): 6.69%
early apoptosis (E.A) cells (melanoma cell line A375 [3]): 9.11%
late apoptosis (L.A) cells (melanoma cell line A375 [3]): 3.54%
live (L) cells (melanoma cell line A375 [3]): 80.66%

CNC(=O)c1cc(Oc2ccc3c(C(=O)Nc4ccc(C(C)C)cc4)cccc3c2)ccn1 [Compound 9b, 4-((5-((4-Isopropylphenyl)carbamoyl)naphthalen-2-yl)oxy)-N-methylpicolinamide]
inhibition at 10 µM (B-Raf^WT): 98.4%
inhibition at 10 µM (B-Raf^V600E): 98.4%
inhibition at 10 µM (c-Raf): 99.7%
IC50 [1]: 0.17 ± 0.012 µM

CNC(=O)c1cc(Oc2ccc3c(C(=O)Nc4ccc(I)cc4)cccc3c2)ccn1 [Compound 9c, 4-((5-((4-Iodophenyl)carbamoyl)naphthalen-2-yl)oxy)-N-methylpicolinamide]
inhibition at 10 µM (B-Raf^WT): 92.7%
inhibition at 10 µM (B-Raf^V600E): 88.6%
inhibition at 10 µM (c-Raf): 98.9%
IC50 [1]: 0.67 ± 0.017 µM

CNC(=O)c1cc(Oc2ccc3c(C(=O)Nc4ccc(OC)c(F)c4)cccc3c2)ccn1 [Compound 9d, 4-((5-((3-Fluoro-4-methoxyphenyl)carbamoyl)naphthalen-2-yl)oxy)-N-methylpicolinamide]
inhibition at 10 µM (B-Raf^WT): 97.4%
inhibition at 10 µM (B-Raf^V600E): 98.2%
inhibition at 10 µM (c-Raf): 99.6%
IC50 [1]: 0.54 ± 0.019 µM

CNC(=O)c1cc(Oc2ccc3c(C(=O)Nc4ccc(N5CCOCC5)c(F)c4)cccc3c2)ccn1 [Compound 9e, 4-((5-((3-Fluoro-4-morpholinophenyl)carbamoyl)naphthalen-2-yl)oxy)-N-methylpicolinamide]
inhibition at 10 µM (B-Raf^WT): 42.1%
inhibition at 10 µM (B-Raf^V600E): 24.9%
inhibition at 10 µM (c-Raf): 76.3%
IC50 values (μM) against A375 ([1]; A375 cells): weak cytotoxic activity
IC50 [1]: 4.46 ± 0.024 µM
% inhibition across the tested Raf kinases [4]: 24.93–76.30%

CNC(=O)c1cc(Oc2ccc3c(C(=O)Nc4ccc(F)cc4)cccc3c2)ccn1 [Compound 9f, 4-((5-((4-Fluorophenyl)carbamoyl)naphthalen-2-yl)oxy)-N-methylpicolinamide]
inhibition at 10 µM (B-Raf^WT): 74.7%
inhibition at 10 µM (B-Raf^V600E): 75.8%
inhibition at 10 µM (c-Raf): 96.5%
IC50 [1]: 0.44 ± 0.008 µM

CNC(=O)c1cc(Oc2ccc3c(C(=O)Nc4ccc(C)c(C)c4)cccc3c2)ccn1 [Compound 9g, 4-((5-((3,4-Dimethylphenyl)carbamoyl)naphthalen-2-yl)oxy)-N-methylpicolinamide]
inhibition at 10 µM (B-Raf^WT): 99.3%
inhibition at 10 µM (B-Raf^V600E): 100%
inhibition at 10 µM (c-Raf): 99.8%
IC50 [1]: 1.42 ± 0.013 µM

CNC(=O)c1cc(Oc2ccc3c(C(=O)Nc4cc(C)cc(Br)c4)cccc3c2)ccn1 [Compound 9h, 4-((5-((3-Bromo-5-methylphenyl)carbamoyl)naphthalen-2-yl)oxy)-N-methylpicolinamide]
inhibition at 10 µM (B-Raf^WT): 99.6%
inhibition at 10 µM (B-Raf^V600E): 100%
inhibition at 10 µM (c-Raf): 99.8%
IC50 [1]: 1.67 ± 0.032 µM

CNC(=O)c1cc(Oc2ccc3c(C(=O)Nc4ccc(OC)c(Cl)c4)cccc3c2)ccn1 [Compound 9i, 4-((5-((3-Chloro-4-methoxyphenyl)carbamoyl)naphthalen-2-yl)oxy)-N-methylpicolinamide]
inhibition at 10 µM (B-Raf^WT): 99.7%
inhibition at 10 µM (B-Raf^V600E): 100%
inhibition at 10 µM (c-Raf): 99.6%
IC50 [1]: 1.75 ± 0.021 µM

CNC(=O)c1cc(Oc2ccc(NC(=O)Nc3ccc(Cl)c(C(F)(F)F)c3)cc2)ccn1 [Sorafenib]
IC50 [1]: 0.92 ± 0.018 µM
G0/G1 phase Percent (melanoma cell line A375 [2]): 34.08%
G2/M phase Percent (melanoma cell line A375 [2]): 13.41%
S phase Percent (melanoma cell line A375 [2]): 49.72%
G0/G1 phase Percent (melanoma cell line A375 [2]; listed as sorafenib): 34.08%
G2/M phase Percent (melanoma cell line A375 [2]; listed as sorafenib): 13.41%
S phase Percent (melanoma cell line A375 [2]; listed as sorafenib): 49.72%
N quadrant cells (melanoma cell line A375 [3]): 12.49%
early apoptosis (E.A) cells (melanoma cell line A375 [3]): 4.03%
late apoptosis (L.A) cells (melanoma cell line A375 [3]): 4.34%
live (L) cells (melanoma cell line A375 [3]): 79.14%
